Source: PubChem BioAssay AID1963431 (Molecular Pharmacology Branch, DTP, NCI, 2024)

System: Rh18 complex spheroid viability, percent test/control
Assay: Anticancer human tumor Rh18 cell line growth inhibition [Asc];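 also: spheroids exposed to compound for 7 days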;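 as to viability, T/C: 100% = DMSO vehicle control wells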
Details: for IC50: curve of first compound; for viability, T/C: stronger effect = lower value
Description: Multicellular complex tumor spheroid response to apoptosis pathway targeting inhibitors Alrizomadlin, Pelcitoclax, and Dasminapant in combination with a variety of drugs and investigational agents in selected tumor cell lines
The MDM2 inhibitor alrizomadlin, the Bcl-2/Bcl-xL inhibitor pelcitoclax, and the IAPs inhibitor dasminapant were evaluated both individually and in combination with standard of care and investigational anticancer small molecules within a complex spheroid model of solid tumors. . Complex spheroids include a stromal component modeled by human endothelial cells (HUVEC) and fibroblasts modeled by human mesenchymal stem cells (MSCs). The concentration ranges selected for each drug and investigational agent were based upon clinically achievable concentrations if the clinical Cmax of the agent was known.
Compounds. The drugs and investigational agents: alrizomadlin (APG-115; NSC831270), pelcitoclax (APG-1252; NSC835773), dasminapant (APG-1387;NSC834197), TAK-243 (NSC785004), copanlisib (NSC809693), olaparib (NSC753686), talazoparib (NSC767125), cobimetinib (NSC 768068), eltanexor (KPT-8602, NSC 794443), abemaciclib (NSC 768073), sotorasib (NSC818433), adagrasib (NSC 831453), MRTX-1133 (NSC 836407), Iadademestat (ORY1001, NSC 806812), and RMC-4630 (NSC839698), were obtained from the NCI Developmental Therapeutics Program Chemical Repository. The FDA-approved anticancer drug set is available from the Developmental Therapeutics Program at https://dtp.cancer.gov/organization/dscb/obtaining/available plates.htm. […] The stock solutions were prepared in dimethyl sulfoxide (DMSO, Sigma-Aldrich, St. Louis, MO, cat. D2650) at 800-fold the tested concentration and stored at -70 degrees C prior to their use. All drugs and investigational agents were tested over a range starting from a high concentration at or near the clinical Cmax and decreasing in half-log increments. If the clinical Cmax for an agent had not been determined, the highest concentration tested was 10 microM.
The patient-derived cancer (PDC) cell lines include five colon adenocarcinomas: 186277-243-T-J2-PDC, 616215-338-R-J1-PDC, 439559-082-T-J2-PDC, 463943-066-T-J2-PDC, and 519858-162-T-J1-PDC; three pancreatic carcinomas: 323965-272-R-J2-PDC, 521955-158-R6-J3-PDC, and 521955-158-R2-J5-PDC; two uterine sarcomas: 327498-152-R-J2-PDC and 993429-296-R-J1-PDC; two rhabdomyosarcomas: 755483-174-R-J1-PDC and 772245-204-R-J1-PDC; two soft tissue sarcomas: 126254-015-R-J1-PDC and 494315-158-R-J1-PDC; two malignant fibrous histiocytomas: 317291-083-R-J1-PDC and 596521-263-R-J1-PDC; two breast carcinomas: 171881-019-R-J1-PDC and 885512-296-R-J2-PDC; and one ovarian carcinoma: 6556581-035-R-J-PDC were obtained from the NCI PDMR, (https://pdmr.cancer.gov). The established cell lines HSSY-2 synovial sarcoma (RRID:CVCL 8719), SYO-1 synovial sarcoma (RRID:CVCL_7146), MPNST malignant peripheral neural sheath tumor were obtained from the Sloan Kettering Institute. The following established cell lines were purchased from the American Type Culture Collection (ATCC, Manassas, VA), Sor the received from the NCI repository:, PANC-1 pancreatic carcinoma (CRL-1469, RRID:CVCL_0480), OVCAR-5 ovarian carcinoma (RRID:CVCL_1628), OVCAR-8 ovarian carcinoma (RRID:CVCL_1629), , MCF-7 breast carcinoma (CRL-12584, RRID:CVCL_0031), MDA-MB-231 breast carcinoma (CRL-12532, RRID:CVCL_0062), NCI-H1876 small cell lung carcinoma (CRL-5902, RRID:CVCL_1503), NCI-H510A small cell lung carcinoma (HTB-184, RRID:CVCL_1565), NCI-H1417 (CRL-5869, RRID:CVCL_1469), and NCI-H196 small cell lung carcinoma (CRL-5823, RRID:CVCL_1509). Dr. Peter Houghton (Greehey Children's Cancer Research Institute, University of Texas Health Science Center, San Antonio, TX) provided Rh-18 rhabdomyosarcoma (RRID:CVCL_1659). Pooled donor human umbilical vein endothelial cells (HUVEC, Lonza, cat. CC-2519) and human mesenchymal stem cells (hMSC, Lonza, cat. PT-2501) were purchased from Lonza (Walkersville, MD).
Cell Culture. […]

[1] = second compound 0.03 µM, first compound 0.00316 µM
[2] = second compound 0.03 µM, first compound 0.01 µM
[3] = second compound 0.03 µM, first compound 0.0316 µM
[4] = second compound 0.03 µM, first compound 0.1 µM
[5] = second compound 0.0949 µM, first compound 0.00316 µM
[6] = second compound 0.0949 µM, first compound 0.01 µM
[7] = second compound 0.0949 µM, first compound 0.0316 µM
[8] = second compound 0.0949 µM, first compound 0.1 µM
[9] = second compound 0.3 µM, first compound 0.00316 µM
[10] = second compound 0.3 µM, first compound 0.01 µM
[11] = second compound 0.3 µM, first compound 0.0316 µM
[12] = second compound 0.3 µM, first compound 0.1 µM
[13] = second compound 0.949 µM, first compound 0.00316 µM
[14] = second compound 0.949 µM, first compound 0.01 µM
[15] = second compound 0.949 µM, first compound 0.0316 µM
[16] = second compound 0.949 µM, first compound 0.1 µM
[17] = second compound 3 µM, first compound 0.00316 µM
[18] = second compound 3 µM, first compound 0.01 µM
[19] = second compound 3 µM, first compound 0.0316 µM
[20] = second compound 3 µM, first compound 0.1 µM
[21] = second compound 0.03 µM, first compound 0.316 µM
[22] = second compound 0.03 µM, first compound 1 µM
[23] = second compound 0.0949 µM, first compound 0.316 µM
[24] = second compound 0.0949 µM, first compound 1 µM
[25] = second compound 0.3 µM, first compound 0.316 µM
[26] = second compound 0.3 µM, first compound 1 µM
[27] = second compound 0.949 µM, first compound 0.316 µM
[28] = second compound 0.949 µM, first compound 1 µM
[29] = second compound 3 µM, first compound 0.316 µM
[30] = second compound 3 µM, first compound 1 µM

With `Cn1ncnc1[C@H]1c2n[nH]c(=O)c3cc(F)cc(c23)N[C@@H]1c1ccc(F)cc1` + CCN1C(C(=O)NC23CCC(C(=O)O)(CC2)CC3)C(c2cccc(Cl)c2F)C2(C(=O)Nc3cc(Cl)ccc32)C12CCCCC2 the IC50 (second compound 0.03 µM) was < 0.316 nM, the IC50 (second compound 0.0949 µM) was < 0.316 nM and the IC50 (second compound 0.3 µM) was < 0.316 nM. The IC50 (second compound 0.949 µM) was < 0.316 nM, the IC50 (second compound 3 µM) was < 0.316 nM and the viability, T/C (second compound 0.03 µM, first compound 0.000316 µM) was 39%. The viability, T/C (second compound 0.03 µM, first compound 0.001 µM) was 36.2%, the viability, T/C [1] was 45.6% and the viability, T/C [2] was 36.1%. For the same compound, the viability, T/C [3] was 39.4%, the viability, T/C [4] was 49% and the viability, T/C (second compound 0.0949 µM, first compound 0.000316 µM) was 22.7%. The viability, T/C (second compound 0.0949 µM, first compound 0.001 µM) was 27.1%, the viability, T/C [5] was 25.6% and the viability, T/C [6] was 26.6%. For the same compound, the viability, T/C [7] was 25.5%, the viability, T/C [8] was 25.3% and the viability, T/C (second compound 0.3 µM, first compound 0.000316 µM) was 13.3%. For the same compound, the viability, T/C (second compound 0.3 µM, first compound 0.001 µM) was 15.4%, the viability, T/C [9] was 13% and the viability, T/C [10] was 13.1%. The viability, T/C [11] was 13.3%, the viability, T/C [12] was 13.3% and the viability, T/C (second compound 0.949 µM, first compound 0.000316 µM) was 11.1%. For the same compound, the viability, T/C (second compound 0.949 µM, first compound 0.001 µM) was 11.2%, the viability, T/C [13] was 11.7% and the viability, T/C [14] was 10.4%. For the same compound, the viability, T/C [15] was 9.91%, the viability, T/C [16] was 9.54% and the viability, T/C (second compound 3 µM, first compound 0.000316 µM) was 9.71%. It also gave a viability, T/C (second compound 3 µM, first compound 0.001 µM) of 9.49%, a viability, T/C [17] of 9.33% and a viability, T/C [18] of 7.51%. For the same compound, the viability, T/C [19] was 8.46% and the viability, T/C [20] was 7.12%.

With `O=C(c1cc(Cc2n[nH]c(=O)c3ccccc23)ccc1F)N1CCN(C(=O)C2CC2)CC1` + CCN1C(C(=O)NC23CCC(C(=O)O)(CC2)CC3)C(c2cccc(Cl)c2F)C2(C(=O)Nc3cc(Cl)ccc32)C12CCCCC2 the IC50 (second compound 0.03 µM) was < 31.6 nM, the IC50 (second compound 0.0949 µM) was < 31.6 nM and the IC50 (second compound 0.3 µM) was < 31.6 nM. For the same compound, the IC50 (second compound 0.949 µM) was < 31.6 nM, the IC50 (second compound 3 µM) was < 31.6 nM and the viability, T/C [3] was 49.4%. For the same compound, the viability, T/C [4] was 38.6%, the viability, T/C [21] was 43.2% and the viability, T/C [22] was 41.7%. It also gave a viability, T/C (second compound 0.03 µM, first compound 3.16 µM) of 40.7%, a viability, T/C (second compound 0.03 µM, first compound 10 µM) of 46.3% and a viability, T/C [7] of 26.5%. The viability, T/C [8] was 26.8%, the viability, T/C [23] was 28.7% and the viability, T/C [24] was 29%. For the same compound, the viability, T/C (second compound 0.0949 µM, first compound 3.16 µM) was 25.1%, the viability, T/C (second compound 0.0949 µM, first compound 10 µM) was 23.7% and the viability, T/C [11] was 14.2%. It also gave a viability, T/C [12] of 13.7%, a viability, T/C [25] of 14.7% and a viability, T/C [26] of 12.3%. The viability, T/C (second compound 0.3 µM, first compound 3.16 µM) was 11.6%, the viability, T/C (second compound 0.3 µM, first compound 10 µM) was 12.4% and the viability, T/C [15] was 10.5%. It also gave a viability, T/C [16] of 11.3%, a viability, T/C [27] of 10.7% and a viability, T/C [28] of 10.2%. It also gave a viability, T/C (second compound 0.949 µM, first compound 3.16 µM) of 9.53%, a viability, T/C (second compound 0.949 µM, first compound 10 µM) of 9.36% and a viability, T/C [19] of 10.4%. For the same compound, the viability, T/C [20] was 8.17%, the viability, T/C [29] was 9.35% and the viability, T/C [30] was 10.7%. The viability, T/C (second compound 3 µM, first compound 3.16 µM) was 9% and the viability, T/C (second compound 3 µM, first compound 10 µM) was 8.64%.

For `O=C(c1ccc(F)c(F)c1Nc1ccc(I)cc1F)N1CC(O)([C@@H]2CCCCN2)C1` + CCN1C(C(=O)NC23CCC(C(=O)O)(CC2)CC3)C(c2cccc(Cl)c2F)C2(C(=O)Nc3cc(Cl)ccc32)C12CCCCC2, the IC50 (second compound 0.03 µM) was < 3.16 nM, the IC50 (second compound 0.0949 µM) was < 3.16 nM and the IC50 (second compound 0.3 µM) was < 3.16 nM. The IC50 (second compound 0.949 µM) was < 3.16 nM, the IC50 (second compound 3 µM) was < 3.16 nM and the viability, T/C [1] was 35.4%. For the same compound, the viability, T/C [2] was 36.8%, the viability, T/C [3] was 31.1% and the viability, T/C [4] was 33.5%. The viability, T/C [21] was 23.8%, the viability, T/C [22] was 6.29% and the viability, T/C [5] was 22.7%. The viability, T/C [6] was 20.1%, the viability, T/C [7] was 20.1% and the viability, T/C [8] was 13.9%. For the same compound, the viability, T/C [23] was 7.94%, the viability, T/C [24] was 1.48% and the viability, T/C [9] was 13%. The viability, T/C [10] was 11.5%, the viability, T/C [11] was 10.7% and the viability, T/C [12] was 8.42%. The viability, T/C [25] was 3.11%, the viability, T/C [26] was 1.29% and the viability, T/C [13] was 9.01%. For the same compound, the viability, T/C [14] was 11.2%, the viability, T/C [15] was 9.23% and the viability, T/C [16] was 5.03%. The viability, T/C [27] was 0.89%, the viability, T/C [28] was 0.92% and the viability, T/C [17] was 8.3%. For the same compound, the viability, T/C [18] was 11.4%, the viability, T/C [19] was 10.8% and the viability, T/C [20] was 2.33%. The viability, T/C [29] was 0.83% and the viability, T/C [30] was 1.01%.
